One experiment addresses ABCB1 (Homo sapiens, UniProt P08183). The experiment is described as follows: vanadate-sensitive ATPase stimulation in insect cell membranes expressing ABCB1. It counts as biochemical.
A further experiment has as its target T1, ABCG2 (Homo sapiens, UniProt Q9UNQ0).
T1 sequence (Q9UNQ0 1-655): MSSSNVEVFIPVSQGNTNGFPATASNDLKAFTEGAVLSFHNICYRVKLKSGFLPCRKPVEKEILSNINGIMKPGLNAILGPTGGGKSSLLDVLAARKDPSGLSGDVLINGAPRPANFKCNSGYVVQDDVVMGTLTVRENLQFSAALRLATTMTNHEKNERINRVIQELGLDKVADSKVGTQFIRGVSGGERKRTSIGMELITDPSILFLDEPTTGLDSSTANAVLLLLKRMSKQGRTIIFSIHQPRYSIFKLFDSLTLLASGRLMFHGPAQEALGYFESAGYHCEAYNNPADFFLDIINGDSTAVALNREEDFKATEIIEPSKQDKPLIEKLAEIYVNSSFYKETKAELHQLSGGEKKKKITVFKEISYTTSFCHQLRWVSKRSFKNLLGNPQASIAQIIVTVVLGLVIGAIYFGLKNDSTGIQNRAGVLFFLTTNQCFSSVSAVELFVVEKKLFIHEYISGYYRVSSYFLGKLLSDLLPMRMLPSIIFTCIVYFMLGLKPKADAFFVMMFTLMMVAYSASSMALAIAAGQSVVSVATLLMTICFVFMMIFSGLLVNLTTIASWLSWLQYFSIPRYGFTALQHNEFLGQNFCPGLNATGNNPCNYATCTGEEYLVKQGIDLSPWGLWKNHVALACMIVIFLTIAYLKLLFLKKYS
Nature of the experiment: vanadate-sensitive ATPase stimulation in insect cell membranes expressing ABCG2. The class given is biochemical.

The values below come from article PMC6620786 (Molecular pharmaceutics, 2019).

SMILES strings stand for the structures.

ABCB1, sequence (P08183 whole entry): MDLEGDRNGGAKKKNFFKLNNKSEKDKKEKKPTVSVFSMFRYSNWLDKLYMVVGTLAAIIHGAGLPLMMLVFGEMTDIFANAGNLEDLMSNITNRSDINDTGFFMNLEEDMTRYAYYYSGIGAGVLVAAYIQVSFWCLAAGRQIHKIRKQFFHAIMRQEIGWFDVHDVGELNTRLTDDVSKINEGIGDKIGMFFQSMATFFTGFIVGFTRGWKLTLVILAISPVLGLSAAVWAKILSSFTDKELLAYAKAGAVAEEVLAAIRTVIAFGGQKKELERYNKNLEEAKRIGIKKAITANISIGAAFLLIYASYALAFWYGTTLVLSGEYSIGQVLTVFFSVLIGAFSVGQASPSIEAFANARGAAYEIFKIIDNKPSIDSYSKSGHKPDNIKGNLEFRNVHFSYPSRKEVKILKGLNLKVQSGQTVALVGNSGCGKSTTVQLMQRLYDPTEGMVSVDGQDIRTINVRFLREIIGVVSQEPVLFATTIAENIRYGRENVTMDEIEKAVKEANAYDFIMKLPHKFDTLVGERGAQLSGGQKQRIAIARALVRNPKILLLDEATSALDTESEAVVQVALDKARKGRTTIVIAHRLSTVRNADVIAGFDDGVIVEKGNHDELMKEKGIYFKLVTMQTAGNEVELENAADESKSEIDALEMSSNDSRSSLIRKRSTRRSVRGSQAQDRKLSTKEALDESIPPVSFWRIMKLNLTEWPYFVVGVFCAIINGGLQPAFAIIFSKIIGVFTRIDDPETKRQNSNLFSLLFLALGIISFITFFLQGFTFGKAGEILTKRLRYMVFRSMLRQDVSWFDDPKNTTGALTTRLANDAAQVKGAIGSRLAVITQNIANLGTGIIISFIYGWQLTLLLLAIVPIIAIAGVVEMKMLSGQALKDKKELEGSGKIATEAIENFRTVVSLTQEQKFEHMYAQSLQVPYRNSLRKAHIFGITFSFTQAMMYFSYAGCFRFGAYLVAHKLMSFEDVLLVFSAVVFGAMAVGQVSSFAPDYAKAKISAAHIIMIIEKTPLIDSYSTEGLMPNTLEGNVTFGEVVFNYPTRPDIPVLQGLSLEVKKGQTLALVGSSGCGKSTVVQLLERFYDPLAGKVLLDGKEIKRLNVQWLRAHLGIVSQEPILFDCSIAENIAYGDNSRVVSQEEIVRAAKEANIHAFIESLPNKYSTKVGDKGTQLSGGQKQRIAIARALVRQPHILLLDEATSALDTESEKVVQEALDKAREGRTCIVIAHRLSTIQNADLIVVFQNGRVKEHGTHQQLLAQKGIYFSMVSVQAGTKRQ

As usually defined, the EC50 is the concentration that produces a half-maximal response. A low value points to higher potency in that assay. Take `Cn1cc(-c2cc3c(N4CCN(c5ncc([C@@](C)(N)c6ccc(F)cc6)cn5)CC4)ncnn3c2)cn1` [avapritinib]: the EC50 on ABCB1 was about 5000 nM; on ABCG2 it was about 200 nM.
